Measured values as given in patent US20220169654A1, “New Organic Compounds” (Servier Pharmaceuticals LLC, priority 2020, published 2022).

How the values were obtained:
[1] = system: SAM in HCT116 human colon carcinoma cell line with MTAP gene deleted (MTAP −/−); experiment: Cellular assay of target engagement (SAM), LC-MS/MS, 72 hrs; assay type: cell-based; settings: HCT-116, IC50 bin with Max Inh., read-out: Cell 72 h SAM Inhibition (MTAP −/−)
Protocol: Measurement of MAT2A activity in cells was made by direct quantitation of the abundance of the product of its enzymatic activity, SAM. Cancer cells were treated with candidate MAT2A inhibitors for a suitable incubation period, and the cells were then lysed using a reagent which quenched any further enzyme activity. Soluble metabolites including SAM were collected and SAM itself was directly measured from the lysate using quantitative LC-MS/MS.
A typical assay was performed using an HCT116 human colon carcinoma cell line which was genetically engineered to delete the MTAP gene (commercially available from Horizon Discovery). This cell line was utilized because it was determined that loss of the MTAP gene predicts sensitivity to MAT2A inhibitors. Cells were plated in 96-well dishes at appropriate cell density. Following 24 hours, cells were then treated with the candidate MAT2A inhibitor. Prior to addition to cells, the compound was first serially diluted in 100% DMSO, typically as a 3-fold serial dilution starting at 500× top dose with 10 dose points including DMSO only control. Compound was then transferred to a working stock plate in cell culture media by adding 5 μL of compound in DMSO to 495 μL of cell culture media. This working stock was then added to cells via a further 5-fold dilution, by adding 25 μL of working stock to 100 μL of cells in culture media. Following compound addition, cells were incubated at 37° C./5% CO2 for 72 hrs.
To quantitate SAM levels following compound treatment, cells were gently washed once in ammonium carbonate buffer (75 mM at pH 7.4), placed on dry ice, and lysed with metabolite extraction buffer (80% cold methanol and 20% water (v/v) with acetic acid at 1M final concentration with 200 ng/mL deuterated d3-SAM as internal control). Following centrifugation at 4° C. at 3,200 rpm for 30 minutes, the supernatant was collected and stored at −80° C. until analysis by Liquid Chromatography with tandem Mass Spectrometry (LC-MS/MS). LC-MS/MS analysis was performed using an API6500 Mass Spectrometer (Sciex, Framingham, Mass., USA) operating in positive ion spray mode and equipped with a Waters UPLC Acquity (Waters, Milford, Mass., USA) BEH Amide column. Multiple Reaction Monitoring data was acquired for SAM and the d3-SAM standard, using a mass transition pair at m/z 399.2→250.1 and 402.2→250.1, respectively. In a typical LC-MS/MS analysis, the initial flow rate was 0.5 ml/min of 25% mobile phase A (acetonitrile and water at 5:95 (v/v) with 1% formic acid and 10 mM ammonium acetate) and 75% mobile phase B (acetonitrile and water at 95:5 (v/v) with 1% formic acid and 10 mM ammonium acetate), 0.2-0.5 minutes with 75%-35% mobile phase B, 25%-65% mobile phase A, at 0.5 min 65% mobile phase A and 35% mobile phase B, 1.0-1.1 minutes with 35%-75% mobile phase B, 65%-25% mobile phase A, at 1.1 min 25% mobile phase A and 75% mobile phase B with a total run time of 1.5 minutes.
Specific compounds disclosed herein were tested in the foregoing assay and they were determined to inhibit SAM with an IC50. See, Table 1 below.

[2] = molecular target: T1, MAT2A homodimer (Homo sapiens, UniProt P31153); experiment: MAT2A inhibition (biochemical, liberated phosphate, PiColorLock Gold); settings: recombinant MAT2A homodimer; IC50 bin with Max Inh.; read-out: Enzyme Inhibition Bin
T1 construct: inferred from Ni sepharose purification with imidazole elution; made in house; host or cells: Sf9 insect cells, baculovirus (Bac to Bac, pFASTBAC1)
T1 sequence (P31153 whole entry): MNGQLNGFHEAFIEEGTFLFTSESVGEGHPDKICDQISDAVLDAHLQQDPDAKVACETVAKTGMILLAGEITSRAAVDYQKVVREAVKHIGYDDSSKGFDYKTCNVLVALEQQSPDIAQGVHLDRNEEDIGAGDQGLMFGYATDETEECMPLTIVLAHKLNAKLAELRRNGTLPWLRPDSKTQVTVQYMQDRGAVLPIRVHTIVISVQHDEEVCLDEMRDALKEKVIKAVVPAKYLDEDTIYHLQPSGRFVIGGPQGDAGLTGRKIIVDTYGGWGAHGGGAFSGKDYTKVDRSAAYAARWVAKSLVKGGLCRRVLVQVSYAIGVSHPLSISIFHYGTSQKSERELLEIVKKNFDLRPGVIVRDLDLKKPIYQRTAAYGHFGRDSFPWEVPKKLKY
Outline: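 Enzyme at 4 μg/mL and compound equilibrated 60 min at 25 °C, then 60 min reaction after adding substrate mix (500 μM ATP, 400 μM methionine). Released phosphate quantified by colorimetric kit against a phosphate standard curve to give IC50. Secondary format used 1 μg/mL enzyme with 5 h incubation.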

[3] = system: HCT116 MTAP−/−; experiment: Inhibition of cellular proliferation, 4 days, Cell Titer Glo, HCT116 MTAP−/−; assay type: cell-based; settings: Homo sapiens, HCT-116, 96 h, IC50 bin with Max Inh., read-out: 4 Day Relative Growth Inhibition (MTAP −/−)
Protocol: (§1) Test compound impact on cancer cell growth was assessed by treating cancer cells with compound for 4 days and then measuring proliferation using an ATP-based cell proliferation readout (Cell Titer Glo, Promega Corporation).
(§2) In a typical assay an isogenic pair of HCT116 human colon carcinoma cell lines which vary only in MTAP deletion status (HCT116 MTAP+/+ and HCT116 MTAP−/−) were plated in 96-well dishes at appropriate cell density. Following 24 hours, cells were then treated with the candidate MAT2A inhibitor. Prior to addition to cells, the compound was first serially diluted in 100% DMSO, typically as a 3-fold serial dilution starting at 500× top dose with 10 dose points including DMSO only control. Compound was then transferred to a working stock plate in cell culture media by adding 5 μL of compound in DMSO to 495 μL of cell culture media. This working stock was then added to cells via a further 5-fold dilution, by adding 25 μL of working stock to 100 μL of cells in culture media. Following compound addition, cells were incubated at 37° C./5% CO2 for 4 days.
(§3) To measure inhibition of cellular proliferation, cells were allowed to equilibrate to room temperature for 30 minutes, and were then treated with 125 μL of Cell Titer Glo reagent. The plate was then covered with aluminum foil and shaken for 15 minutes to ensure complete mixing and full cell lysis. Luminescent signal was then measured using a plate-based luminometer Veritas version 1.9.2 using ATP standard curve to confirm assay reproducibility from run to run. This luminescence measure was converted to a proliferation index by subtracting from each data point the ATP luminescence signal measured from a bank (no cells) well and dividing by the ATP luminescence signal measured in 0.2% DMSO control well adjusted for signal in blank well. Compound activity was then represented as a percentage change in proliferation relative to a within-plate DMSO control against log 10 of compound concentration in molar (M) units.
(§4) Specific compounds disclosed herein were tested in the foregoing assay and they were determined to inhibit cellular proliferation with an IC50. See, Table 1 below.

[4] = system: HCT116 MTAP+/+; experiment: Inhibition of cellular proliferation, 4 days, Cell Titer Glo, HCT116 MTAP+/+; assay type: cell-based; settings: Homo sapiens, HCT-116, 96 h, IC50 bin with Max Inh., read-out: 4 Day Relative Growth Inhibition (MTAP +/+)
Protocol: as §1, §2, §3, §4

SMILES	IC50 [1]	IC50 [2]	IC50 [3]	IC50 [4]
CC(C)c1ccc(-c2c(=O)n(-c3ccc4nn(C)cc4c3)nc3ccn(CC4CC4)c23)cn1 [Example 129, 5-(cyclopropylmethyl)-4-(6-isopropylpyridin-3-yl)-2-(2-methyl-2H-indazol-5-yl)-2,5-dihydro-3H-pyrrolo[3,2-c]pyridazin-3-one]	100 to 1000 nM	< 100 nM	< 100 nM	> 1000 nM
Cn1cc2cc(-n3nc4c(C#N)cn(CC5CC5)c4c(-c4ccc5[nH]cc(C#N)c5c4)c3=O)ccc2n1 [Example 130, 4-(3-cyano-1H-indol-5-yl)-5-(cyclopropylmethyl)-2-(2-methyl-2H-indazol-5-yl)-3-oxo-3,5-dihydro-2H-pyrrolo[3,2-c]pyridazine-7-carbonitrile]	< 100 nM	< 100 nM	100 to 1000 nM	> 1000 nM
[2H]C([2H])([2H])Oc1ccc(-n2nc3ccn(CC4CC4)c3c(-c3ccc(C(F)F)nc3)c2=O)cc1 [Example 132, 5-(cyclopropylmethyl)-4-(6-(difluoromethyl)pyridin-3-yl)-2-(4-(methoxy-d3)phenyl)-2,5-dihydro-3H-pyrrolo[3,2-c]pyridazin-3-one]	100 to 1000 nM	< 100 nM	100 to 1000 nM	> 1000 nM
Cn1cc2cc(-n3nc4c(C#N)cn(CC(F)(F)F)c4c(-c4ccc(C5CC5)nc4)c3=O)ccc2n1 [Example 133, 4-(6-cyclopropylpyridin-3-yl)-2-(2-methyl-2H-indazol-5-yl)-3-oxo-5-(2,2,2-trifluoroethyl)-3,5-dihydro-2H-pyrrolo[3,2-c]pyridazine-7-carbonitrile]	100 to 1000 nM	< 100 nM	100 to 1000 nM	> 1000 nM
[2H]C([2H])([2H])Oc1ccc(-n2nc3ccn(CC4CC4)c3c(-c3ccc(C)nc3)c2=O)cc1 [Example 134, 5-(cyclopropylmethyl)-2-(4-(methoxy-d3)phenyl)-4-(6-methylpyridin-3-yl)-2,5-dihydro-3H-pyrrolo[3,2-c]pyridazin-3-one]	< 100 nM	< 100 nM	100 to 1000 nM	> 1000 nM
CCc1ccc(-c2c(=O)n(-c3ccc4nn(C)cc4c3)nc3c(C#N)cn(CC4CC4)c23)cn1 [Example 136, 5-(cyclopropylmethyl)-4-(6-ethylpyridin-3-yl)-2-(2-methyl-2H-indazol-5-yl)-3-oxo-3,5-dihydro-2H-pyrrolo[3,2-c]pyridazine-7-carbonitrile]	< 100 nM	< 100 nM	< 100 nM	100 to 1000 nM

Now from value to molecule:

IC50 [1]	IC50 [2]	IC50 [3]	IC50 [4]	SMILES
< 100 nM	< 100 nM	100 to 1000 nM	> 1000 nM	CC(C)c1ccc(-c2c(=O)n(-c3ccc4nn(C)cc4c3)nc3c(C#N)cn(CC4CC4)c23)cn1 [Example 128, 5-(cyclopropylmethyl)-4-(6-isopropylpyridin-3-yl)-2-(2-methyl-2H-indazol-5-yl)-3-oxo-3,5-dihydro-2H-pyrrolo[3,2-c]pyridazine-7-carbonitrile]
< 100 nM	< 100 nM	100 to 1000 nM	> 1000 nM	[2H]C([2H])([2H])Oc1ccc(-n2nc3c(C#N)cn(CC4CC4)c3c(-c3ccc(C)nc3)c2=O)cc1 [Example 131, 5-(cyclopropylmethyl)-2-(4-(methoxy-d3)phenyl)-4-(6-methylpyridin-3-yl)-3-oxo-3,5-dihydro-2H-pyrrolo[3,2-c]pyridazine-7-carbonitrile]
< 100 nM	< 100 nM	< 100 nM	100 to 1000 nM	CCc1ccc(-c2c(=O)n(-c3ccc4nn(C)cc4c3)nc3ccn(CC4CC4)c23)cn1 [Example 135, 5-(cyclopropylmethyl)-4-(6-ethylpyridin-3-yl)-2-(2-methyl-2H-indazol-5-yl)-2,5-dihydro-3H-pyrrolo[3,2-c]pyridazin-3-one]
